Here are results for one compound from patent US20230218614A1, “COMPOUND FOR THE TREATMENT OF C[…]” (METRIOPHARM AG, priority 2020, published 2023).

In one data set the test system is Vero B4 cells. Conditions: non-infected Vero B4 cells, antivirally effective concentrations, observation period of 3 days. An excerpt:
Herein viable cells with an intact mitochondrial succinate-tetrazolium dehydrogenase system effect an enzymatic conversion of the feebly red tetrazolium salt WST-1 (4-[3-(4-iodophenyl)-2-(4-nitrophenyl)-2H-5-tetrazolio]-1,3 benzene disulfonate) into dark red formazan. This color change can be measured photometrically in a spectrophotometer. Thus, the WST assay is a very sensitive method for measuring the toxicity of substances on the cell metabolism. The value for untreated cells was set to 100%.
The value for untreated cells was set to 100%.

The next data set relates to 3-nitrotyrosine. Conditions: ex vivo lung exposed to cigarette smoke; cited from earlier work.

`Nc1cccc2c(=O)[nH][nH]c(=O)c12.[Na]` [5-amino-2,3-dihydro-1,4-phthalazinedione sodium salt]: the “toxic effect (cell viability, WST assay)” value in the data set on Vero B4 cells was “does not display any significant toxic effect”. For the same compound, in the data set on SARS-CoV-2, the “SARS-CoV-2 nucleocapsid protein (Western Blot bands)” value is “clear reduction” and the “generation of SARS-CoV-2 proteins (densitometric evaluation of nucleocapsid)” value is “inhibited dose-dependently”. In addition, the 3-nitrotyrosine result in the data set on 3-nitrotyrosine was “nearly complete reduction”.
